Data reported in patent US7405240B2, “Substituted cyclopentanes or cyclopentanones as therapeutic agents” (Allergan, Inc., priority 2006, dated 2008).

Columns and labels:
hEP2 [1] = target: T1, hEP2 (Homo sapiens, UniProt P43116); assay: cAMP assay, hEP2; type: cell-based
hEP2 [2] = target: T1, hEP2; assay: FLIPR calcium signal, hEP2; type: cell-based; set-up: expressed in transfected cells; host or cells: HEK-293(EBNA); details: HEK-293(EBNA) cells expressing hEP2/Gqs5
Procedure: Methods for FLIPR™ Studies
HEK-293(EBNA) cells, stably expressing one type or subtype of recombinant human prostaglandin receptors (prostaglandin receptors expressed: hDP/Gqs5; hEP1; hEP2/Gqs5; hEP3A/Gqi5; hEP4/Gqs5; hFP; hIP; hTP), were cultured in 100 mm culture dishes in high-glucose DMEM medium containing 10% fetal bovine serum, 2 mM 1-glutamine, 250 μg/ml geneticin (G418) and 200 μg/ml hygromycin B as selection markers, and 100 units/ml penicillin G, 100 μg/ml streptomycin and 0.25 μg/ml amphotericin B.
Cells were seeded at a density of 5×10^4 cells per well in Biocoat® Poly-D-lysine-coated black-wall, clear-bottom 96-well plates (Becton-Dickinson) and allowed to attach overnight in an incubator at 37° C. Cells were then washed two times with HBSS-HEPES buffer (Hanks Balanced Salt Solution without bicarbonate and phenol red, 20 mM HEPES, pH 7.4) using a Denley Cellwash plate washer (Labsystems). After 45 minutes of dye-loading in the dark, using the calcium-sensitive dye Fluo-4 AM at a final concentration of 2 μM, plates were washed four times with HBSS-HEPES buffer to remove excess dye leaving 100 μl in each well. Plates were re-equilibrated to 37° C. for a few minutes.
Cells were excited with an Argon laser at 488 nm, and emission was measured through a 510-570 nm bandwidth emission filter (FLIPR™, Molecular Devices, Sunnyvale, Calif.). Drug solution was added in a 50 μl volume to each well to give the desired final concentration. The peak increase in fluorescence intensity was recorded for each well. On each plate, four wells each served as negative (HBSS-HEPES buffer) and positive controls (standard agonists: BW245C (hDP); PGE2 (hEP1; hEP2/Gqs5; hEP3A/Gqi5; hEP4/Gqs5); PGF2α (hFP); carbacyclin (hIP); U-46619 (hTP), depending on receptor). The peak fluorescence change in each drug-containing well was then expressed relative to the controls.
Compounds were tested in a high-throughput (HTS) or concentration-response (CoRe) format. In the HTS format, forty-four compounds per plate were examined in duplicates at a concentration of 10^−5 M. To generate concentration-response curves, four compounds per plate were tested in duplicates in a concentration range between 10^−5 and 10^−11 M. The duplicate values were averaged. In either, HTS or CoRe format each compound was tested on at least 3 separate plates using cells from different passages to give an n≧3.

hEP4 = hEP4 (Homo sapiens, UniProt P35408); assay: Radioligand binding, EP4 receptor; set-up: expressed in transfected cells; host or cells: HEK-293; details: [3H]PGE2, HEK-293 cells expressing EP4
Sequence of hEP4 (P35408 whole entry): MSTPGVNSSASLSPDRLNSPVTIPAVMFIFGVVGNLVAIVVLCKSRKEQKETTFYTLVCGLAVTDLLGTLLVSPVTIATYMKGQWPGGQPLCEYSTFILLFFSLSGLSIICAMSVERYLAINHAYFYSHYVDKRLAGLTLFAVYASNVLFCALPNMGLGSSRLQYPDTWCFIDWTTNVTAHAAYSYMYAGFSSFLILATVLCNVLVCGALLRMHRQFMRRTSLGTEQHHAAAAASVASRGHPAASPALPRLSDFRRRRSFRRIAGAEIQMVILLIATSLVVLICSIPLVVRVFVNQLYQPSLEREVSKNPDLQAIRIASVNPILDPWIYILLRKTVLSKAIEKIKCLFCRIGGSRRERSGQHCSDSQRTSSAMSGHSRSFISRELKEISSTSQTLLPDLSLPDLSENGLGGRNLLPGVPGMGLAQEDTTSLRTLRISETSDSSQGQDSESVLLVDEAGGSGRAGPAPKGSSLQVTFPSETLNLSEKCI
Procedure: (§1) HEK-293 cells stably expressing the human or feline FP receptor, or EP1, EP2, or EP4 receptors were washed with TME buffer, scraped from the bottom of the flasks, and homogenized for 30 sec using a Brinkman PT 10/35 polytron. TME buffer was added to achieve a final 40 ml volume in the centrifuge tubes (the composition of TME is 100 mM TRIS base, 20 mM MgCl2, […]; 10N HCl is added to achieve a pH of 7.4).
(§2) The cell homogenate was centrifuged at 19000 r.p.m. for 20 min at 4° C. using a Beckman Ti-60 rotor. The resultant pellet was resuspended in TME buffer to give a final 1 mg/ml protein concentration, as determined by Biorad assay. Radioligand binding competition assays vs. [3H-] 17-phenyl PGF2, (5 nM) were performed in a 100 μl volume for 60 min. Binding reactions were started by adding plasma membrane fraction. The reaction was terminated by the addition of 4 ml ice-cold TRIS-HCl buffer and rapid filtration through glass fiber GF/B filters using a Brandel cell harvester. The filters were washed 3 times with ice-cold buffer and oven dried for one hour.
(§3) [^3H-] PGE2 (specific activity 180 Ci mmol) was used as the radioligand for EP receptors. [^3H] 17-phenyl PGF2, was employed for FP receptor binding studies. Binding studies employing EP1, EP2, EP4 and FP receptors were performed in duplicate in at least three separate experiments. A […] assay volume was used. Incubations were for 60 min at 25° C. and were terminated by the addition of 4 ml of ice-cold 50 mM TRIS-HCl, followed by rapid filtration through Whatman GF/B filters and three additional 4 ml washes in a cell harvester (Brandel). Competition studies were performed using a final concentration of 5 nM [^3H]-PGE2, or 5 nM [^3H] 17-phenyl PGF2, and non-specific binding determined with 10^−5M of unlabeled PGE2, or 17-phenyl PGF2α, according to receptor subtype studied.

hEP2 [3] = target: T1, hEP2; assay: Competition binding, [3H]PGE2, human EP2 receptors; set-up: expressed in transfected cells; host or cells: HEK 293; details: [3H]PGE2, HEK 293 cells stably expressing human EP2; read-out: hEP2 Ki
Procedure: Competition binding experiments were performed in a medium containing Hank's balanced salt solution, Hepes 20 mM, pH 7.3, membranes (˜60 μg protein) or 2×10^5 cells from HEK 293 cells stably expressing human EP2 receptors, [^3H]PGE2 (10 nM) and various concentrations of test compounds in a total volume of 300 μl. Reaction mixtures were incubated at 23° C. for 60 min, and were filtered over Whatman GF/B filters under vacuum. Filters were washed three times with 5 ml ice-cold buffer containing 50 mM Tris/HCl (pH 7.3). Non-specific binding was estimated in the presence of excess unlabeled PGE2 (10 μM). Binding data fitted to the binding model for a single class of binding sites, using nonlinear regression analysis. IC50 values thus obtained were converted to Ki using the equation of Ki=(IC50/(1+[L]/KD) where [L] represents PGE2 concentration (10 nM) and KD the dissociation constant for [^3H]PGE2 at human EP2 receptors (40 nM).
as §1, §2, §3

T1 sequence (P43116 whole entry): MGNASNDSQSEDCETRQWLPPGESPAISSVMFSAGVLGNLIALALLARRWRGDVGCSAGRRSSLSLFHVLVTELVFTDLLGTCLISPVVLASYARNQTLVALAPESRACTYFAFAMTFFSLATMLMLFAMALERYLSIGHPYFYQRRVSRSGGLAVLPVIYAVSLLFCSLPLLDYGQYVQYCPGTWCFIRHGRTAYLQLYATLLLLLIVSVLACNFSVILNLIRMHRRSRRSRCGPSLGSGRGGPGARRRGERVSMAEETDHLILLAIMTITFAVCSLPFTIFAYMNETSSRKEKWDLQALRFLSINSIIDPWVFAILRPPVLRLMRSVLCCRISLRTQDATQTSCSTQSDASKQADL

SMILES	EC50 (hEP2 [1]) [nM]	EC50 (hEP2 [2]) [nM]	Ki (hEP4) [nM]	Ki (hEP2 [3]) [nM]
COCc1c(C)cc(OC[C@@H]2[C@@H](C/C=C\CCCC(=O)O)[C@H](Cl)C[C@H]2O)cc1C [Example 57, (Z)-7-[(1R,2S,3R,5R)-5-Chloro-3-hydroxy-2-(4-methoxymethyl-3,5-dimethyl-phenoxymethyl)-cyclopentyl]-hept-5-enoic acid]	23	142	1660	195
CC(C)(c1ccccc1)c1ccc(OC[C@@H]2[C@@H](C/C=C\CCCC(=O)O)[C@H](Cl)C[C@H]2O)cc1 [Example 31, (Z)-7-{(1R,2S,3R,5R)-5-Chloro-3-hydroxy-2-[4-(1-methyl-1-phenyl-ethyl)-phenoxymethyl]-cyclopentyl}-hept-5-enoic acid]		> 10000	1740	> 10000
CCCC(OC)c1ccc(OC[C@@H]2[C@@H](C/C=C\CCCC(=O)O)[C@H](Cl)C[C@H]2O)cc1 (stereo partly drawn) [Example 45, (Z)-7-{(1R,2S,3R,5R)-5-Chloro-3-hydroxy-2-[4-(1-methoxy-butyl)-phenoxymethyl]-cyclopentyl}-hept-5-enoic acid]	47	661	5280	904
O=C(O)CCC/C=C\C[C@@H]1[C@@H](COc2cccc3c2CCC3=O)[C@H](O)C[C@H]1Cl [Example 58, (Z)-7-[(1R,2S,3R,5R)-5-Chloro-3-hydroxy-2-(1-oxo-indan-4-yloxymethyl)-cyclopentyl]-hept-5-enoic acid]	6.5	51	2830	129
O=C(O)CCC/C=C\C[C@@H]1[C@@H](COc2cccc(C(O)Cc3ccccc3)c2)[C@H](O)C[C@H]1Cl (stereo partly drawn) [Example 53, (Z)-7-{(1R,2S,3R,5R)-5-Chloro-3-hydroxy-2-[3-(1-hydroxy-2-phenyl-ethyl)-phenoxymethyl]-cyclopentyl}-hept-5-enoic acid]	496	1730	1850	1750
O=C(O)CCC/C=C\C[C@@H]1[C@@H](COc2cccc3c2CCC3O)[C@H](O)C[C@H]1Cl (stereo partly drawn) [Example 59, (Z)-7-[(1R,2S,3R,5R)-5-Chloro-3-hydroxy-2-(1-hydroxy-indan-4-yloxymethyl)-cyclopentyl]-hept-5-enoic acid]	1.2	108	3000	139
O=C(O)CCC/C=C\C[C@@H]1[C@@H](COc2cccc(CO)c2)[C@H](O)C[C@H]1Cl [Example 49, (Z)-7-[(1R,2S,3R,5R)-5-Chloro-3-hydroxy-2-(3-hydroxymethyl-phenoxymethyl)-cyclopentyl]-hept-5-enoic acid]	14	374	> 10000	207
CC(O)c1cccc(OC[C@@H]2[C@@H](C/C=C\CCCC(=O)O)[C@H](Cl)C[C@H]2O)c1 (stereo partly drawn) [Example 54, (Z)-7-{(1R,2S,3R,5R)-5-Chloro-3-hydroxy-2-[3-(1-hydroxy-ethyl)-phenoxymethyl]-cyclopentyl}-hept-5-enoic acid]	40	121	> 10000	701
CC(C)C(O)c1cccc(OC[C@@H]2[C@@H](C/C=C\CCCC(=O)O)[C@H](Cl)C[C@H]2O)c1 (stereo partly drawn) [Example 51, (Z)-7-{(1R,2S,3R,5R)-5-Chloro-3-hydroxy-2-[3-(1-hydroxy-2-methyl-propyl)-phenoxymethyl]-cyclopentyl}-hept-5-enoic acid]	39	196	> 10000	772
CCCCCC(O)c1ccc(OC[C@@H]2[C@@H](C/C=C\CCCC(=O)O)[C@H](Cl)C[C@H]2O)cc1 (stereo partly drawn) [Example 46, (Z)-7-{(1R,2S,3R,5R)-5-Chloro-3-hydroxy-2-[4-(1-hydroxy-hexyl)-phenoxymethyl]-cyclopentyl}-hept-5-enoic acid]	119	531	2650	2350
Cc1cc(OC[C@@H]2[C@@H](C/C=C\CCCC(=O)O)[C@H](Cl)C[C@H]2O)cc(C)c1CO [Example 56, (Z)-7-[(1R,2S,3R,5R)-5-Chloro-3-hydroxy-2-(4-hydroxymethyl-3,5-dimethyl-phenoxymethyl)-cyclopentyl]-hept-5-enoic acid]	1.8	27	2200	64
CCCC(O)c1ccc(OC[C@@H]2[C@@H](C/C=C\CCCC(=O)O)[C@H](Cl)C[C@H]2O)cc1 (stereo partly drawn) [Example 44, (Z)-7-{(1R,2S,3R,5R)-5-Chloro-3-hydroxy-2-[4-(1-hydroxy-butyl)-phenoxymethyl]-cyclopentyl}-hept-5-enoic acid]	66	1100	> 10000	2730
CCCCCC(O)c1cccc(OC[C@@H]2[C@@H](C/C=C\CCCC(=O)O)[C@H](Cl)C[C@H]2O)c1 (stereo partly drawn) [Example 50, (Z)-7-{(1R,2S,3R,5R)-5-Chloro-3-hydroxy-2-[3-(1-hydroxy-hexyl)-phenoxymethyl]-cyclopentyl}-hept-5-enoic acid]	68	463	1130	826
O=Cc1ccc(OC[C@@H]2[C@@H](C/C=C\CCCC(=O)O)[C@H](Cl)C[C@H]2O)cc1 [Example 42, (Z)-7-[(1R,2S,3R,5R)-5-Chloro-2-(4-formyl-phenoxymethyl)-3-hydroxy-cyclopentyl]-hept-5-enoic acid]	18	> 10000	> 10000	1500
CC(O)c1ccc(OC[C@@H]2[C@@H](C/C=C\CCCC(=O)O)[C@H](Cl)C[C@H]2O)cc1 (stereo partly drawn) [Example 47, (Z)-7-{(1R,2S,3R,5R)-5-Chloro-3-hydroxy-2-[4-(1-hydroxy-ethyl)-phenoxymethyl]-cyclopentyl}-hept-5-enoic acid]	124	1940	> 10000	5290
